Literature values as cited in US7498354B2, “Pyrrolo[2,3-D]imidazoles for the treatment of hyperproliferative disorders” (OSI Pharmaceuticals, Inc., priority 2006, dated 2009).
Where a name gives a salt, the structure may show the parent alone.

Experiments:
[1] = test system: MO7e human leukemia cells; conditions: GM-CSF stimulation
[2] = test system: MO7e human leukemia cells; conditions: Kit ligand stimulation

Cc1ccc(NC(=O)c2ccc(CN3CCN(C)CC3)cc2)cc1Nc1nccc(-c2cccnc2)n1 [Gleevec, imatinib mesylate]
GM-CSF stimulated growth of MO7e human leukemia cells [1]: not affected | Kit ligand-stimulated growth of MO7e human leukemia cells [2]: inhibited | apoptosis in Kit ligand-stimulated MO7e cells [2]: induces apoptosis
